Data published in US9573960B2, “Glioblastoma inhibiting compounds and their use” (Life & Brain GmbH, priority 2011, dated 2017).
Counter-ions that a name gives are not always drawn. Like-named read-outs stand apart in the source and are kept apart here.

Columns and labels:
[1] = tested on: #155 cells (primary cells from a patient with pharmacoresistent epilepsy); experiment: Drug screening, AlamarBlue assay in #155 control cells; type: cell-based, human; conditions: 1 μM
Method: (§1) Experiments were performed in triplicates for each sample.
As an alternative control, primary cells were evaluated, which were obtained from a patient suffering from pharmacoresistent epilepsy (patient #155).

[2] = tested on: four patient-specific primary GBM cultures; conditions: for effect on the primary GBM cells' metabolic activity: 1 μM
Method: Before screening, cell number was titrated for each cell line separately to ensure that cell proliferation remained in a linear-exponential phase throughout the experiment. 24 hours after seeding 2−3×10^3 cells/well into laminin/poly-L-ornithine coated 96-well plates, primary cultures were treated with 2 nM, 1 μM or 10 μM of each compound (stock solution 10 mM in DMSO). As a reference we treated cells with 50 μM and 500 μM temozolomide (TMZ, SigmaAldrich, Taufkirchen, Germany; stock solution of 100 mM in DMSO). Control cells were treated with 0.5-0.01% DMSO. Six days after application, cell viability was determined using the AlamarBlue® assay according to the manufacturers recommendations (Invitrogen, Karlsruhe, Germany). Fluorescence was measured using an Infinite200 microplate reader (Tecan, Crailsheim, Germany) at Xex=540 nm and Xem=590 nm. Experiments were performed in triplicates for each sample.
To identify cytotoxic and cytostatic compounds, we conducted in vitro drug-screening assays in four different patient-specific primary GBM cultures (see Table 1 for basic characterization of research specimens).
The compound library was screened at three different concentrations (10 μM, 1 μM, 2 nM). The relative metabolic activity was determined after a 5-day incubation with compounds. […] For reference, we applied 50 μM (reported plasma peak concentration) and 500 μM of temozolomide (TMZ, as described in Beier et al., 2008), the current standard chemotherapeutic GBM drug to our cells. […] However, “hits” in the setting of a primary screening were defined as a reduction of the relative metabolic activity under the level of 50% of DMSO-treated control cells.

glioma cell line U87 = experiment: Drug screening, AlamarBlue assay in U87; type: cell-based; conditions: for inhibition at 1 µM: Glioma cell, 144 h, read-out: reduction of the relative metabolic activity of U87
Method: as §1
For comparison with our four patient-specific primary GBM cell specimens, we used the commercially available glioma cell line U87 that is frequently investigated in drug discovery settings (FIG. 2).

[3] = tested on: clonogenic, neurosphere-forming GBM cells; experiment: Neurosphere assay after pristimerin; type: cell-based, human; conditions: single dose 1 μM, cases 046, 078, 106
Method: Based on previous investigations (Scheffler et al., 2005), a single cell suspension of 1×10^4 cells/cm^2 was diluted in 1% methylcellulose-containing PROL media provided with 20 ng/ml EGF/bFGF, and inoculated into nonadhesive culture dishes. 10 ng/ml EGF/bFGF was then added every other day. Neurospheres were quantified at 21 days in culture, triturated to a single cell suspension, which was used for plating under identical conditions and analysis of the formation of secondary or higher degree neurospheres. For analysis of multipotency, a representative fraction of 3° neurospheres were used. Neurospheres were plated onto laminin/poly-L-ornithine coated glass coverslips and, after attachment, provided with PROL media devoid of mitogens to allow differentiation for 2-3 weeks in culture before PFA-fixation and immunofluorescence analysis.
Furthermore, a single dose of pristimerin decreased the frequency of clonogenic, i.e. neurosphere-forming cells by 30-60% (FIG. 9a,b). Depletion of clonogenic cells was never observed at concentrations of […]. Clonogenic cells were always able to selfrenew and form higher-degree neurospheres that gave rise to immature neurons and astrocytes (FIG. 9c). These findings indicate that Pristimerin is not selectively inhibiting GBM cancer stem cells. […]

[4] = tested on: GBM primary cells (035, 046); experiment: Long-term monitoring of cell confluency (CellaVista); type: cell-based, human; conditions: single dose 1 μM, post compound application
Method: FIG. 8: Long-term monitoring of cellular confluency post application of 1 μM pristimerin (dotted lines) in two independent GBM primary cell culture experiments (035=triangle; 046=squares) (solid line, 0.1% DMSO). Live cell-imaging was performed using the CellaVista system according to its specifications (Roche Diagnostics).
We used the CellaVistasystem (Roche Diagnostics, Mannheim) for monitoring of cell confluency as a surrogate analysis tool.

[5] = tested on: GBM primary cells under non-adherent conditions (neurospheres); experiment: Pristimerin in 3D culture, non-adherent growth conditions (ICM50); type: cell-based; conditions: Homo sapiens, single dose, specimens 046, 078, 106
From the text: FIG. 11: Inhibition of GBM primary cells under adherent (solid line) vs. non-adherent (dotted line) conditions. Results represent the mean of triplicate-well-analysis for 3 different specimens at each concentration (046, 078, 106)
The GBM-inhibitory activity of Pristimerin was confirmed in 3D culture systems, i.e. non-adherent growth conditions (FIG. 11). Under anchorage-withdrawal, GBM cells form neurospheres, and investigation of their metabolic response patterns indicated a more resistant phenotype.

[6] = tested on: patient-specific GBM primary cells; experiment: Pharmacodynamic analysis of pristimerin, AlamarBlue (ICM50); type: cell-based; conditions: Homo sapiens, 120 h
Method: For pharmacodynamic analyses of pristimerin and niclosamide 5×10^4 cells were plated in 12 well plates 24 h before they were treated with concentrations indicated. 5 days after the treatment, cell viability was monitored by the AlamarBlue® assay. Experiments were performed in triplicates. The ICM50 is the concentration of agent that reduced the metabolic activity by 50% under the experimental conditions.
Pristimerin induces apoptosis in GBM primary cells. […] Because the peak plasma concentration of pristimerin is not yet known, we investigated a range of concentrations between 70 nM and 10 μM (FIG. 5). Under these conditions, pristimerin is potently cytotoxic at median ICM50's (half maximal inhibitory concentration of metabolic activity) of approximately 500 nM (FIG. 5a,b,d)

[7] = tested on: patient-specific GBM primary cultures; experiment: AnnexinV-based FACS analysis of apoptosis; type: cell-based, human; conditions: 1 μM, 5-day exposure, in 7 out of 8 cultures
Method: […] 1×10^5 cells were sedimented by centrifugation, resuspended in […] AnnexinV buffer (BD Bioscience, Heidelberg, Germany) and incubated with 5 μl Annexin V-FITC (BD Bioscience, Heidelberg, Germany) for 1 h at RT. To distinguish between living and dead cells, labeling with 1.2 μg/ml bisbenzimide H33258 (Invitrogen, Karlsruhe, Germany) was used. Expression was determined using standard conditions in a LSRII equipped with FACSDiva Software (BD Bioscience, Heidelberg, Germany). For each measurement, 20.000 cells were counted. Annexin V positive cells, Annexin V and H33258 positive cells and H33258 positive cells were termed avital cells.
These effects could be validated as compound-specific, based on analysis of Pristimerin purchased from an independent supplier that yielded similar results (Sigma; FIG. 1b). For further experimentation, pristimerin was applied at 1 μM concentrations (FIG. 1c). […] In 7 out of 8 investigated patient-specific GBM primary cultures more than 50% of all cells could be classified as avital (FIG. 6; ***p<0.001, compared to their respective DMSO-treated control cells).

GBM primary cells = experiment: Growth kinetic analysis (proliferation kinetics); type: cell-based, human; conditions: single dose 1 μM
Method: Five days after treatment in 6 cm dishes, 47,000 vital cells were plated into 3.5 cm laminin/poly-L-ornithine coated plastic dishes. 20 ng/ml EGF/bFGF were provided upon plating, and 10 ng/ml EGF/bFGF were added every other day thereafter. Four-to-six days later, adherent cells were trypsinized, harvested, counted, and plated at a density of 4.7×10^4 cells. This procedure was repeated for 4-5 passages. Mean values are presented with standard error.
Cells surviving the application of Pristimerin expand linearly on a logarithmic scale. There is an initial delay of cell growth lasting for a maximum of 10 days. However, thereafter, every patient-specific GBM primary culture we investigated thus far continued to proliferate as well as their respective DMSO-control (FIG. 7).

[8] = in vivo; cited from earlier work

## C=C1[C@@H](C)[C@H]2[C@H](Cc3ccccc3)NC(=O)[C@]23[C@H](OC(C)=O)/C=C/[C@@](C)(O)C(=O)[C@@H](C)C/C=C/[C@H]3[C@@H]1O [cytochalasin D]
[1]
  effect on the metabolic activity of the #155 cells: diminished the metabolic activity of the #155 cells significantly
[2]
  effect on the primary GBM cells' metabolic activity: no significant effect

## O=C1C(Cl)=C(Cl)C(=O)c2c(O)ccc(O)c21 [2,3-dichloro-5,8-dihydroxynapthoquinone]
[1]
  effect on the metabolic activity of the #155 cells: diminished the metabolic activity of the #155 cells significantly
[2]
  effect on the primary GBM cells' metabolic activity: no significant effect

## CN(Cc1cnc2nc(N)nc(N)c2n1)c1ccc(C(=O)N[C@@H](CCC(=O)O)C(=O)O)cc1 [Methotrexate]
[1]
  effect on the metabolic activity of the #155 cells: very little effect
Glioma cell line U87; 1 μM
  inhibition at 1 µM: ≤ 50%

## C=C(C)[C@H]1Cc2c(ccc3c2O[C@@H]2COc4cc(OC)c(OC)cc4[C@@H]2C3=O)O1 [Rotenone]
[1]
  effect on the metabolic activity of the #155 cells: very little effect
Glioma cell line U87
  inhibition at 1 µM: ≤ 50%

## CC[C@@]1(O)C(=O)OCc2c1cc1n(c2=O)Cc2cc3cc(O)ccc3nc2-1 [10-Hydroxycamptothecin]
[1]
  effect on the metabolic activity of the #155 cells: very little effect

## O=C(Nc1ccc([N+](=O)[O-])cc1Cl)c1cc(Cl)ccc1O [Niclosamide]
[1]
  effect on the metabolic activity of the #155 cells: very little effect
Glioma cell line U87; 1 μM
  inhibition at 1 µM: ≤ 50%

## CCCCCCCCCCCCCC(=O)O[C@@H]1[C@@H](C)[C@@]2(O)[C@@H](C=C(CO)C[C@]3(O)C(=O)C(C)=C[C@@H]23)[C@@H]2C(C)(C)[C@]12OC(C)=O [phorbol myristate acetate]
[1]
  effect on the metabolic activity of the #155 cells: diminished the metabolic activity of the #155 cells significantly
[2]
  effect on the primary GBM cells' metabolic activity: no significant effect

## C[C@@]12C(=O)OC(=O)[C@]1(C)[C@H]1CC[C@@H]2O1 [Cantharidin]
[1]
  effect on the metabolic activity of the #155 cells: diminished the metabolic activity of the #155 cells significantly
[2]
  effect on the primary GBM cells' metabolic activity: no significant effect

## CC(=O)O[C@H]1C(=O)[C@@]2(C)[C@H]([C@H](OC(=O)c3ccccc3)[C@]3(O)C[C@H](OC(=O)[C@H](O)[C@@H](NC(=O)c4ccccc4)c4ccccc4)C(C)=C1C3(C)C)[C@]1(OC(C)=O)CO[C@@H]1C[C@@H]2O [paclitaxel]
[1]
  effect on the metabolic activity of the #155 cells: very little effect

## COC(=O)[C@]1(C)CC[C@]2(C)CC[C@]3(C)C4=CC=C5C(=CC(=O)C(O)=C5C)[C@]4(C)CC[C@@]3(C)[C@@H]2C1 [Pristimerin]
[2]; case 023, 1 μM
  reduction of metabolic activity: 90%
[2]; case 035, 1 μM
  reduction of metabolic activity: 97%
[2]; case 046, 1 μM
  reduction of metabolic activity: 78%
[2]; case 106, 1 μM
  reduction of metabolic activity: 97%
[3]
  decrease of frequency of clonogenic, neurosphere-forming cells: 30-60%
[4]
  time before surviving cells take on proliferative activity: ≥ 10 days
[5]
  IC50: 1100 nM
[6]; 70 nM to 10 μM, 5 days post application, read-out: median ICM50 (half maximal inhibitory concentration of metabolic activity)
  IC50: ~500 nM
[6]; Microsource compound, 5 days, read-out: median ICM50
  IC50: 580 nM
[6]; Sigma compound, 5 days, read-out: median ICM50
  IC50: 430 nM
[7]
  cells classified as avital: more than 50%
Glioma cell line U87
  inhibition at 1 µM: ≤ 50%
GBM primary cells
  initial delay of cell growth: ≤ 10 days

## CC[C@@]1(O)C(=O)OCc2c1cc1n(c2=O)Cc2cc3ccccc3nc2-1 [camptothecin]
[1]
  effect on the metabolic activity of the #155 cells: very little effect

## Nc1nc2nc[nH]c2c(=S)[nH]1 [Thioguanine]
[1]
  effect on the metabolic activity of the #155 cells: very little effect
Glioma cell line U87; 1 μM
  inhibition at 1 µM: ≤ 50%

## CC[C@H]1CN2CCc3cc(OC)c(OC)cc3[C@@H]2C[C@@H]1C[C@H]1NCCc2cc(OC)c(OC)cc21 [emetine]
[1]
  effect on the metabolic activity of the #155 cells: very little effect

## COc1cc([C@@H]2c3cc4c(cc3[C@@H](O[C@@H]3O[C@@H]5CO[C@@H](c6cccs6)O[C@H]5[C@H](O)[C@H]3O)[C@H]3COC(=O)[C@H]23)OCO4)cc(OC)c1O [Teniposide]
[1]
  effect on the metabolic activity of the #155 cells: very little effect
Glioma cell line U87; 1 μM
  inhibition at 1 µM: ≤ 50%

## N=c1ccn2c(n1)O[C@H]1[C@H](O)[C@@H](CO)O[C@H]12 [Ancitabine hydrochloride]
Glioma cell line U87; 1 μM
  inhibition at 1 µM: ≤ 50%

## COc1cc([C@@H]2c3cc4c(cc3[C@H](O)[C@H]3COC(=O)[C@@H]23)OCO4)cc(OC)c1OC [Picropodophyllotoxin]
[1]
  effect on the metabolic activity of the #155 cells: very little effect
Glioma cell line U87
  inhibition at 1 µM: ≤ 50%

## CC[C@]1(O)C[C@H]2CN(CCc3c([nH]c4ccccc34)[C@@](C(=O)OC)(c3cc4c(cc3OC)N(C=O)[C@H]3[C@@](O)(C(=O)OC)[C@H](OC(C)=O)[C@]5(CC)C=CCN6CC[C@]43[C@@H]65)C2)C1 [vincristine sulfate]
[1]
  effect on the metabolic activity of the #155 cells: very little effect

## O=c1[nH]c(=O)n([C@H]2C[C@H](O)[C@@H](CO)O2)cc1F [Floxuridine]
[1]
  effect on the metabolic activity of the #155 cells: very little effect
Glioma cell line U87; 1 μM
  inhibition at 1 µM: ≤ 50%

## COc1cc(O)c2c(c1)C(=O)c1cc(C)cc(O)c1C2=O [Physicion]
[2]
  effect on the primary GBM cells' metabolic activity: without affecting
Glioma cell line U87; 1 μM
  influence on the U87's metabolic activity: significant influence

## Cn1nnc2c(C(N)=O)ncn2c1=O [TMZ, temozolomide]
[2]; 50 μM TMZ, mean of four patient-specific primary cultures
  reduction of relative metabolic activity: 17%
[2]; 500 μM TMZ, mean of four patient-specific primary cultures
  relative metabolic activity, level: 63%
[8]
  reported plasma peak concentration: 50 µM
